PubChem BioAssay AID2060891 (Molecular Pharmacology Branch, DTP, NCI, 2025)

Test system: K98450-129-R-PDC complex spheroid growth, percent test/control
Assay: Anticancer human tumor K98450-129-R-PDC patient-derived colon adenocarcinoma cell line growth inhibition [RAS]
Details: for IC50: curve of first compound; for viability, T/C: stronger effect = lower value
How it was run: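 Tumour cells grown as complex spheroids with HUVEC endothelial cells and mesenchymal stem cells, treated with RAS pathway inhibitor combinations. Each agent spans half-log steps from near clinical Cmax, or 10 microM where Cmax is unknown.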

[1] = second compound 0.000949 µM, first compound 0.0316 µM
[2] = second compound 0.000949 µM, first compound 0.1 µM
[3] = second compound 0.000949 µM, first compound 0.316 µM
[4] = second compound 0.000949 µM, first compound 1 µM
[5] = second compound 0.000949 µM, first compound 3.16 µM
[6] = second compound 0.000949 µM, first compound 10 µM
[7] = second compound 0.003 µM, first compound 0.0316 µM
[8] = second compound 0.003 µM, first compound 0.1 µM
[9] = second compound 0.003 µM, first compound 0.316 µM
[10] = second compound 0.003 µM, first compound 1 µM
[11] = second compound 0.003 µM, first compound 3.16 µM
[12] = second compound 0.003 µM, first compound 10 µM
[13] = second compound 0.00949 µM, first compound 0.0316 µM
[14] = second compound 0.00949 µM, first compound 0.1 µM
[15] = second compound 0.00949 µM, first compound 0.316 µM
[16] = second compound 0.00949 µM, first compound 1 µM
[17] = second compound 0.00949 µM, first compound 3.16 µM
[18] = second compound 0.00949 µM, first compound 10 µM
[19] = second compound 0.03 µM, first compound 0.0316 µM
[20] = second compound 0.03 µM, first compound 0.1 µM
[21] = second compound 0.03 µM, first compound 0.316 µM
[22] = second compound 0.03 µM, first compound 1 µM
[23] = second compound 0.03 µM, first compound 3.16 µM
[24] = second compound 0.03 µM, first compound 10 µM
[25] = second compound 0.0949 µM, first compound 0.0316 µM
[26] = second compound 0.0949 µM, first compound 0.1 µM
[27] = second compound 0.0949 µM, first compound 0.316 µM
[28] = second compound 0.0949 µM, first compound 1 µM
[29] = second compound 0.0949 µM, first compound 3.16 µM
[30] = second compound 0.0949 µM, first compound 10 µM
[31] = second compound 0.3 µM, first compound 0.0316 µM
[32] = second compound 0.3 µM, first compound 0.1 µM
[33] = second compound 0.3 µM, first compound 0.316 µM
[34] = second compound 0.3 µM, first compound 1 µM
[35] = second compound 0.3 µM, first compound 3.16 µM
[36] = second compound 0.3 µM, first compound 10 µM
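Further: spheroids exposed to agents for seven days before the viability readout.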
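Wherever viability, T/C is given: luminescence used as a proxy for viable cell amount.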

CC(=O)OC12COC1CC(O)C1(C)C(=O)C(O)C3=C(C)C(OC(=O)C(O)C(NC(=O)OC(C)(C)C)c4ccccc4)CC(O)(C(OC(=O)c4ccccc4)C21)C3(C)C (stereo unspecified) + CCn1c(-c2cccnc2C(C)OC)c2c3cc(ccc31)N1CCOC(CC(NC(=O)C(C(C)C)N(C)C(=O)C3(F)CCN(C(=O)C#CC(C)(C)N(C)C)CC3)C(=O)N3CCCC(N3)C(=O)OCC(C)(C)C2)C1
IC50 (second compound 0.000949 µM): 190 nM
IC50 (second compound 0.003 µM): 43.1 nM
IC50 (second compound 0.00949 µM): < 31.6 nM
IC50 (second compound 0.03 µM): < 31.6 nM
IC50 (second compound 0.0949 µM): < 31.6 nM
IC50 (second compound 0.3 µM): < 31.6 nM
viability, T/C [1]: 69.7%
viability, T/C [2]: 66.1%
viability, T/C [3]: 37.2%
viability, T/C [4]: 24.6%
viability, T/C [5]: 25.8%
viability, T/C [6]: 24.8%
viability, T/C [7]: 52.4%
viability, T/C [8]: 43.6%
viability, T/C [9]: 23.8%
viability, T/C [10]: 19.7%
viability, T/C [11]: 21.4%
viability, T/C [12]: 20.1%
viability, T/C [13]: 40.6%
viability, T/C [14]: 25.5%
viability, T/C [15]: 19.9%
viability, T/C [16]: 18.7%
viability, T/C [17]: 19.5%
viability, T/C [18]: 18.1%
viability, T/C [19]: 30.9%
viability, T/C [20]: 28.2%
viability, T/C [21]: 19.2%
viability, T/C [22]: 17.7%
viability, T/C [23]: 19.7%
viability, T/C [24]: 20.4%
viability, T/C [25]: 29.6%
viability, T/C [26]: 26.9%
viability, T/C [27]: 18.9%
viability, T/C [28]: 19%
viability, T/C [29]: 18.8%
viability, T/C [30]: 18.4%
viability, T/C [31]: 29.5%
viability, T/C [32]: 22.7%
viability, T/C [33]: 19.1%
viability, T/C [34]: 16.3%
viability, T/C [35]: 16.9%
viability, T/C [36]: 18.6%

NC1c2ccccc2OC12CCN(c1cnc3c(N4CCCc5ncccc54)n[nH]c3n1)CC2 (stereo unspecified) + CCn1c(-c2cccnc2C(C)OC)c2c3cc(ccc31)N1CCOC(CC(NC(=O)C(C(C)C)N(C)C(=O)C3(F)CCN(C(=O)C#CC(C)(C)N(C)C)CC3)C(=O)N3CCCC(N3)C(=O)OCC(C)(C)C2)C1
IC50 (second compound 0.000949 µM): < 31.6 nM
IC50 (second compound 0.003 µM): < 31.6 nM
IC50 (second compound 0.00949 µM): < 31.6 nM
IC50 (second compound 0.03 µM): < 31.6 nM
IC50 (second compound 0.0949 µM): < 31.6 nM
IC50 (second compound 0.3 µM): < 31.6 nM
viability, T/C [1]: 44.8%
viability, T/C [2]: 23.5%
viability, T/C [3]: 11%
viability, T/C [4]: 7.16%
viability, T/C [5]: 6.94%
viability, T/C [6]: 8.73%
viability, T/C [7]: 21.5%
viability, T/C [8]: 12.4%
viability, T/C [9]: 7.71%
viability, T/C [10]: 6.76%
viability, T/C [11]: 6.52%
viability, T/C [12]: 7.13%
viability, T/C [13]: 15.6%
viability, T/C [14]: 9.32%
viability, T/C [15]: 7.2%
viability, T/C [16]: 6.45%
viability, T/C [17]: 6.54%
viability, T/C [18]: 7.85%
viability, T/C [19]: 12.8%
viability, T/C [20]: 9.35%
viability, T/C [21]: 7.81%
viability, T/C [22]: 6.41%
viability, T/C [23]: 6.04%
viability, T/C [24]: 6.71%
viability, T/C [25]: 11%
viability, T/C [26]: 8.32%
viability, T/C [27]: 6.62%
viability, T/C [28]: 6.26%
viability, T/C [29]: 5.17%
viability, T/C [30]: 7.13%
viability, T/C [31]: 9.99%
viability, T/C [32]: 6.92%
viability, T/C [33]: 6.83%
viability, T/C [34]: 6.04%
viability, T/C [35]: 5.35%
viability, T/C [36]: 6.26%

Nc1ccn(C2OC(CO)C(O)C2(F)F)c(=O)n1 (stereo unspecified) + CCn1c(-c2cccnc2C(C)OC)c2c3cc(ccc31)N1CCOC(CC(NC(=O)C(C(C)C)N(C)C(=O)C3(F)CCN(C(=O)C#CC(C)(C)N(C)C)CC3)C(=O)N3CCCC(N3)C(=O)OCC(C)(C)C2)C1
IC50 (second compound 0.000949 µM): 18.4 nM
IC50 (second compound 0.003 µM): 9.33 nM
IC50 (second compound 0.00949 µM): < 3.16 nM
IC50 (second compound 0.03 µM): < 3.16 nM
IC50 (second compound 0.0949 µM): < 3.16 nM
IC50 (second compound 0.3 µM): < 3.16 nM
viability, T/C (second compound 0.000949 µM, first compound 0.00316 µM): 73.8%
viability, T/C (second compound 0.000949 µM, first compound 0.01 µM): 43%
viability, T/C [1]: 51.7%
viability, T/C [2]: 39.8%
viability, T/C [3]: 32.4%
viability, T/C [4]: 25.3%
viability, T/C (second compound 0.003 µM, first compound 0.00316 µM): 65.6%
viability, T/C (second compound 0.003 µM, first compound 0.01 µM): 43.6%
viability, T/C [7]: 42.4%
viability, T/C [8]: 26.9%
viability, T/C [9]: 24.5%
viability, T/C [10]: 17%
viability, T/C (second compound 0.00949 µM, first compound 0.00316 µM): 49.1%
viability, T/C (second compound 0.00949 µM, first compound 0.01 µM): 38.4%
viability, T/C [13]: 29.8%
viability, T/C [14]: 21.9%
viability, T/C [15]: 19.9%
viability, T/C [16]: 18.1%
viability, T/C (second compound 0.03 µM, first compound 0.00316 µM): 39%
viability, T/C (second compound 0.03 µM, first compound 0.01 µM): 34.8%
viability, T/C [19]: 26.4%
viability, T/C [20]: 20.7%
viability, T/C [21]: 20.6%
viability, T/C [22]: 17.3%
viability, T/C (second compound 0.0949 µM, first compound 0.00316 µM): 32.4%
viability, T/C (second compound 0.0949 µM, first compound 0.01 µM): 37.1%
viability, T/C [25]: 25.7%
viability, T/C [26]: 21.2%
viability, T/C [27]: 20.8%
viability, T/C [28]: 16.8%
viability, T/C (second compound 0.3 µM, first compound 0.00316 µM): 33.5%
viability, T/C (second compound 0.3 µM, first compound 0.01 µM): 32.1%
viability, T/C [31]: 26.6%
viability, T/C [32]: 19.1%
viability, T/C [33]: 19.5%
viability, T/C [34]: 15.6%
